pIC50, pKi: −log10 of the molar value.
Columns and labels:
[1] = target: T1, metabotropic glutamate receptor 5 (Rattus norvegicus, UniProt P31424); assay: FLIPR Calcium 3 fluorescence-based functional assay of intracellular calcium, mGluR5 antagonist activity; assay type: cell-based; details: inhibition of glutamate (EC90, ~50 uM) stimulated calcium levels, mGluR5 HEK-293 cells; read-out: mGluR5 FLIPR MP Antagonist DR IC50
T1 construct: expressed in transfected cells; host or cells: HEK-293
Outline: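 mGluR5 HEK-293 cells (50,000/well, plated overnight) are loaded with FLIPR Calcium 3 dye for 1 h at 37 °C. Compound is added and fluorescence recorded on FLIPR. Inhibition of the glutamate-stimulated calcium signal is given as %, with IC50 from a 4-parameter logistic fit.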

[2] = target: T2, rat mGluR5 receptor (Rattus norvegicus, UniProt P31424); assay: [3H]-MPEP binding HEK-293 cell membranes expressing a rat mGluR5 receptor; details: displacement of 4 nM [3H]-MPEP, HEK-293 cell membranes expressing rat mGluR5, 60 minute at room temperature; read-out: mGluR5 Ligand Binding DR Ki
T2 construct: expressed in transfected cells; host or cells: HEK-293
Outline: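 Membranes from HEK-293 cells expressing rat mGluR5 incubated 60 min at room temperature in 50 mM Tris pH 7.5 with 4 nM [3H]-MPEP; 10 μM MPEP defines non-specific binding; filtration read-out. Single-point % inhibition at 10 μM, then Ki from IC50 via Cheng-Prusoff for actives.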

T2 sequence (P31424 21-1203): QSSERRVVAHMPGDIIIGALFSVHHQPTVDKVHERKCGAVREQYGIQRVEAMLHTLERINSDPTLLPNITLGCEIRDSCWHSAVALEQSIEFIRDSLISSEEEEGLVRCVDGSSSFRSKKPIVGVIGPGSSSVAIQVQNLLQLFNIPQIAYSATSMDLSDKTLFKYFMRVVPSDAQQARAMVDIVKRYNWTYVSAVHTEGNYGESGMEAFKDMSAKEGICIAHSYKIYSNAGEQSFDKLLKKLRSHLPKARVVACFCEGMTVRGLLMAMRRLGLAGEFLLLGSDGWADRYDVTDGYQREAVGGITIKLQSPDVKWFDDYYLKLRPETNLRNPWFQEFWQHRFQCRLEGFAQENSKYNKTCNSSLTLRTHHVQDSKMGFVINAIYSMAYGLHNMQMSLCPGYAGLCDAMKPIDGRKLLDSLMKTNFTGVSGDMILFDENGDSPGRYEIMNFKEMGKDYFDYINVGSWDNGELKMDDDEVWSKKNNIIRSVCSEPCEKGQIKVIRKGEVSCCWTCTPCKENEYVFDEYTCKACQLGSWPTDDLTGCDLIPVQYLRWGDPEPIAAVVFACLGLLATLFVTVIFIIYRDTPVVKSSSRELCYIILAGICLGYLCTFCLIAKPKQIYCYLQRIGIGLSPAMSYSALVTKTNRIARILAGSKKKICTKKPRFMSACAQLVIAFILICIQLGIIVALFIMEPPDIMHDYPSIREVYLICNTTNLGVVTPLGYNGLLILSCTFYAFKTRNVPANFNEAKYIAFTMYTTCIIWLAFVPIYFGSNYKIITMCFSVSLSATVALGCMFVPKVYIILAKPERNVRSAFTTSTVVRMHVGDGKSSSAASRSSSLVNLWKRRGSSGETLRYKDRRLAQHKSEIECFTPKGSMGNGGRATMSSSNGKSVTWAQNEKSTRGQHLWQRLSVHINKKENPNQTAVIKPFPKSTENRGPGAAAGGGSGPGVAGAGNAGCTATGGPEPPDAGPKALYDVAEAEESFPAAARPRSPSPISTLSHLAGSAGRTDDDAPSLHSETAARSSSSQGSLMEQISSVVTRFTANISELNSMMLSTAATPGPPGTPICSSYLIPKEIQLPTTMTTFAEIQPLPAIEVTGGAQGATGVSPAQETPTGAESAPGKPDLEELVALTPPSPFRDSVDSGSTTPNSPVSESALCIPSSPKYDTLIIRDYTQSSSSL
T1 sequence (P31424 21-1203): as above

pIC50 [1] | pKi [2] | SMILES
7.43 | 9.40 | O=C(c1ccc(Cl)c(C#Cc2ccccn2)c1)N1CCc2ccc(F)cc2C1 [Example 70, 2-{[4-chloro-3-(pyridin-2-ylethynyl)phenyl]carbonyl}-7-fluoro-1,2,3,4-tetrahydroisoquinoline]
7.17 | 8.30 | O=C(c1ccc(F)c(C#Cc2ccccn2)c1)N1CCc2ccccc2C1 [Example 71, 2-[4-Fluoro-3-(pyridin-2-ylethynyl)benzoyl]-1,2,3,4-tetrahydroisoquinoline]
7.54 | 8.70 | O=C(c1ccc(F)c(C#Cc2ccccn2)c1)N1CCc2ccc(Cl)cc2C1 [Example 72, 7-chloro-2-[4-fluoro-3-(pyridin-2-ylethynyl)benzoyl]-1,2,3,4-tetrahydroisoquinoline]
7.40 | 9.00 | O=C(c1ccc(F)c(C#Cc2ccccn2)c1)N1CCc2c(Cl)cccc2C1 [Example 73, 5-chloro-2-[4-fluoro-3-(pyridin-2-ylethynyl)benzoyl]-1,2,3,4-tetrahydroisoquinoline]
7.21 | 7.96 | O=C(c1ccc(F)c(C#Cc2ccccn2)c1)N1Cc2ccccc2C1 [Example 74, 2-[4-fluoro-3-(pyridin-2-ylethynyl)benzoyl]isoindoline]
7.96 | 8.52 | CCOc1ccc(C(=O)N2CCc3ccccc3C2)cc1C#Cc1ccccn1 [Example 75, 2-[4-Ethoxy-3-(pyridin-2-ylethynyl)benzoyl]-1,2,3,4-tetrahydroisoquinoline]
7.38 | 9.00 | CCOc1ccc(C(=O)N2CCc3ccc(Cl)cc3C2)cc1C#Cc1ccccn1 [Example 76, 7-chloro-2-[4-ethoxy-3-(pyridin-2-ylethynyl)benzoyl]-1,2,3,4-tetrahydroisoquinoline]
7.39 | 9.00 | CCOc1ccc(C(=O)N2CCc3c(Cl)cccc3C2)cc1C#Cc1ccccn1 [Example 77, 5-chloro-2-[4-ethoxy-3-(pyridin-2-ylethynyl)benzoyl]-1,2,3,4-tetrahydroisoquinoline]
7.92 | 8.30 | CCOc1ccc(C(=O)N2Cc3ccccc3C2)cc1C#Cc1ccccn1 [Example 78, 2-[4-ethoxy-3-(pyridin-2-ylethynyl)benzoyl]isoindoline]
7.47 | 7.64 | O=C(c1ccc(OCC2CC2)c(C#Cc2ccccn2)c1)N1CCc2ccccc2C1 [Example 79, 2-{[4-(Cyclopropylmethoxy)-3-(pyridin-2-ylethynyl)phenyl]carbonyl}-1,2,3,4-tetrahydroisoquinoline]
7.59 | 9.00 | Cc1ccc(C(=O)N2Cc3ccccc3C2)cc1C#Cc1ccccn1 [Example 81, 2-[4-Methyl-3-(pyridin-2-ylethynyl)benzoyl]isoindoline]
7.57 | 9.00 | Cc1ccc(C(=O)N2CCc3ccccc3C2)cc1C#Cc1ccccn1 [Example 82, 2-[4-Methyl-3-(pyridin-2-ylethynyl)benzoyl]-1,2,3,4-tetrahydroisoquinoline]
7.52 | 9.52 | Cc1ccc(C(=O)N2CCc3ccc(Cl)cc3C2)cc1C#Cc1ccccn1 [Example 83, 7-chloro-2-[4-methyl-3-(pyridin-2-ylethynyl)benzoyl]-1,2,3,4-tetrahydroisoquinoline]
7.32 | 9.52 | Cc1ccc(C(=O)N2CCc3c(Cl)cccc3C2)cc1C#Cc1ccccn1 [Example 84, 5-chloro-2-[4-methyl-3-(pyridin-2-ylethynyl)benzoyl]-1,2,3,4-tetrahydroisoquinoline]
8.22 | 8.40 | Cc1ccc(C(=O)N2CCc3ncccc3C2)cc1C#Cc1ccccn1 [Example 85, 6-{[4-Methyl-3-(pyridin-2-ylethynyl)phenyl]carbonyl}-5,6,7,8-tetrahydro-1,6-naphthyridine]
8.10 | 7.96 | Cc1ccc(C(=O)N2CCc3cccnc3C2)cc1C#Cc1ccccn1 [Example 86, 7-{[4-Methyl-3-(pyridin-2-ylethynyl)phenyl]carbonyl}-5,6,7,8-tetrahydro-1,7-naphthyridine]
8.70 | 7.85 | Cc1ccc(C(=O)N2CCc3nc[nH]c3C2)cc1C#Cc1ccccn1 [Example 87, 5-{[4-methyl-3-(pyridin-2-ylethynyl)phenyl]carbonyl}-4,5,6,7-tetrahydro-3H-imidazo[4,5-c]pyridine]
8.40 | 8.22 | Cc1ccc(C(=O)N2CCc3[nH]ncc3C2)cc1C#Cc1ccccn1 [Example 88, 5-{[4-methyl-3-(pyridin-2-ylethynyl)phenyl]carbonyl}-4,5,6,7-tetrahydro-1H-pyrazolo[4,3-c]pyridine]
8.40 | 8.40 | Cc1nc2c(s1)CN(C(=O)c1ccc(C)c(C#Cc3ccccn3)c1)CC2 [Example 89, 2-methyl-5-{[4-methyl-3-(pyridin-2-ylethynyl)phenyl]carbonyl}-4,5,6,7-tetrahydro[1,3]thiazolo[5,4-c]pyridine]
8.05 | 7.80 | Cc1nc2c(o1)CCN(C(=O)c1ccc(C)c(C#Cc3ccccn3)c1)C2 [Example 90, 2-methyl-5-{[4-methyl-3-(pyridin-2-ylethynyl)phenyl]carbonyl}-4,5,6,7-tetrahydro[1,3]oxazolo[4,5-c]pyridine]
8.40 | 8.22 | Cc1ccc(C(=O)N2Cc3cccnc3C2)cc1C#Cc1ccccn1 [Example 91, 6-{[4-methyl-3-(pyridin-2-ylethynyl)phenyl]carbonyl}-6,7-dihydro-5H-pyrrolo[3,4-b]pyridine]
8.15 | 8.52 | O=C(c1ccc(C(F)(F)F)c(C#Cc2ccccn2)c1)N1Cc2cccnc2C1 [Example 92, 6-{[3-(Pyridin-2-ylethynyl)-4-(trifluoromethyl)phenyl]carbonyl}-6,7-dihydro-5H-pyrrolo[3,4-b]pyridine]
7.38 | 8.70 | O=C(c1ccc(C(F)(F)F)c(C#Cc2ccccn2)c1)N1CCc2ccccc2C1 [Example 93, 2-{[3-(Pyridin-2-ylethynyl)-4-(trifluoromethyl)phenyl]carbonyl}-1,2,3,4-tetrahydroisoquinoline]
6.82 | 8.70 | O=C(c1ccc(C(F)(F)F)c(C#Cc2ccccn2)c1)N1CCc2ccc(Cl)cc2C1 [Example 94, 7-Chloro-2-{[3-(pyridin-2-ylethynyl)-4-(trifluoromethyl)phenyl]carbonyl}-1,2,3,4-tetrahydroisoquinoline]
6.79 | 8.40 | O=C(c1ccc(C(F)(F)F)c(C#Cc2ccccn2)c1)N1CCc2c(Cl)cccc2C1 [Example 95, 5-Chloro-2-{[3-(pyridin-2-ylethynyl)-4-(trifluoromethyl)phenyl]carbonyl}-1,2,3,4-tetrahydroisoquinoline]
7.16 | 8.30 | O=C(c1ccc(C(F)(F)F)c(C#Cc2ccccn2)c1)N1Cc2ccccc2C1 [Example 96, 2-{[3-(Pyridin-2-ylethynyl)-4-(trifluoromethyl)phenyl]carbonyl}-2,3-dihydro-1H-isoindole]
7.89 | 9.00 | O=C(c1ccc(C(F)(F)F)c(C#Cc2ccccn2)c1)N1CCc2ncc(Br)cc2C1 [Example 97, 3-Bromo-6-{[3-(pyridin-2-ylethynyl)-4-(trifluoromethyl)phenyl]carbonyl}-5,6,7,8-tetrahydro-1,6-naphthyridine]
8.15 | 8.40 | O=C(c1ccc(C(F)(F)F)c(C#Cc2ccccn2)c1)N1CCc2ncccc2C1 [Example 98, 6-{[3-(Pyridin-2-ylethynyl)-4-(trifluoromethyl)phenyl]carbonyl}-5,6,7,8-tetrahydro-1,6-naphthyridine]
8.30 | 8.40 | O=C(c1ccc(C(F)(F)F)c(C#Cc2ccccn2)c1)N1CCc2[nH]ncc2C1 [Example 100, 5-{[3-(Pyridin-2-ylethynyl)-4-(trifluoromethyl)phenyl]carbonyl}-4,5,6,7-tetrahydro-1H-pyrazolo[4,3-c]pyridine]
7.74 | 7.44 | O=C(c1ccc(C(F)(F)F)c(C#Cc2ccccn2)c1)N1CCc2[nH]cnc2C1 [Example 101, 5-{[3-(Pyridin-2-ylethynyl)-4-(trifluoromethyl)phenyl]carbonyl}-4,5,6,7-tetrahydro-1H-imidazo[4,5-c]pyridine]

From patent US20100273772A1, “Bisaryl Alkynylamides as Negative Allosteric Modulators of Metabotropic Glutamate Receptor 5 (MGLUR5)” (Wyeth LLC, priority 2009, published 2010)
